Measured values: patent publication US20250228858A1, “ANTI-CANCER COMBINATION THERAPY” (Boehringer Ingelheim International GmbH, priority 2023, published 2025)
Like-named read-outs stand apart in the source and are kept apart here.

Legend:
[1] = system: HER2-overexpressing human breast cancer cell line SUM190PT; type: in vivo
Method: The study is performed in human breast cancer cell line SUM190PT grown as subcutaneous xenografts in NMRI-Foxn1^nu mice. Day 1 was the first day, day 21 the last day of treatment and final day of analysis.
Cells are obtained and cultured as described in Example 8 (see paragraph 8.1.2).
Capecitabine can be purchased from Roche Pharma AG. Capecitabine is suspended with 0.5% Natrosol and administered intragastrally with a volume of 10 ml/kg.
Tumor volumes and side effects are monitored as described in Example 1 (see paragraph 1.1.6), except that control animals are sacrificed when the median tumor volume of the group reaches a size of approximately 540 mm^3.
(§1) The statistical evaluation of the tumor volume and the body weight is conducted on day 21 (last day of the study). Apart from this, statistical analysis was performed as described in Example 1 (see paragraph 1.1.7), with no evaluation of tumor growth after stop of treatment.

[2] = system: HER2-overexpressing human esophagus cancer cell line OE19; type: in vivo; conditions: day 20, zongertinib 20 mg/kg qdx20 p.o., T-DXd 3 mg/kg q21dx1 i.v., alone or combined; for Regressions >30%: tumors regressed/total
Method: The study is performed in human esophagus cancer cell line OE19 grown as subcutaneous xenografts in NMRI-Foxn1^nu mice. Day 1 was the first day, day 20 the final day of analysis.
OE19 is a HER2-overexpressing human esophagus cancer cell line that can be obtained from the European Collection of Authenticated Cell Cultures (ACACC Cat. No. 960071721). Cells are cultured in T75, T175 and 5-Layer tissue culture flasks at 37° C. and 5% CO2. The medium used is RPMI 1640 (ATCC #30-2001) supplemented with 10% FCS (Thermo Scientific #SH 30084.03). Cultures are split twice weekly with a ratio of 1:3-1:4.
To establish subcutaneous tumors, OE19 cells are harvested by centrifugation, washed and resuspended in PBS+5% FCS at 5×10^7 cells/ml. 100 μl cell suspension containing 5×10^6 cells is injected subcutaneously into the right flank of the mice (1 site per mouse).
Tumor volumes and side effects are monitored as described in Example 1 (see paragraph 1.1.6), except that control animals are sacrificed when the median tumor volume of the group reaches a size of approximately 1190 mm^3.
The statistical evaluation of the tumor volume and the body weight is conducted on day 20.

parental NCI-N87 cells = assay: Proliferation assay (CellTiter Glo), parental NCI-N87 cells; type: cell-based, human; conditions: 5 days of incubation, in vitro
Method: (§2) Per well, 1000 cells are seeded in 40 μL medium in white, sterile 384-well culture plates (TC-treated; PerkinElmer #6007680) and incubated overnight in a humidified incubator at 37° C. and 5% CO2. 0.1% DMSO-control or serial compound dilution in triplicates are added. […] After 5 days of incubation with test compounds, the cells plates are measured upon addition of CellTiter Glo Luminescent Cell Viability Reagent (Promega, #G9243) to assess cell viability. The plates are placed on a shaker for five minutes and additionally incubated for 10 minutes at room temperature to induce cell lysis and to stabilize the luminescent signal. The luminescent signal of each well is measured in an EnSpire Multilabel Plate Reader 658 (PerkinElmer). The dose response curves are fit and visualized using Boehringer Ingelheim's proprietary software MegaLab and PRISM (GraphPad Inc.).

[3] = system: HER2-overexpressing human esophagus cancer cell line OE19; assay: OE19 subcutaneous xenograft, zongertinib with trastuzumab; type: in vivo, NMRI-Foxn1^nu mice; conditions: day 14; for Regressions >30%: tumors regressed/total (partial response)
Method: The study is performed in human esophagus cancer cell line OE19 grown as subcutaneous xenografts in NMRI-Foxn1^nu mice. Day 1 was the first day, day 14 the last day of treatment and final day of analysis.
OE19 is obtained and cultured as described in Example 3 (see paragraph 3.1.2).
Mice in the control group are treated with vehicle, i.e.: • (iii) 0.5% Natrosol, administered once daily for the duration of the treatment intragastrally by gavage needle with a volume of 10 ml/kg body weight; and • (iv) saline (0.9%), administered once weekly intraperitoneally with a volume of 10 ml/kg.
Tumor volumes and side effects are monitored as described in Example 1 (see paragraph 1.1.6), except that control animals are sacrificed when the median tumor volume of the group reaches a size of approximately 640 mm^3.
The statistical evaluation of the tumor volume and the body weight is conducted on day 14 (last day of the study). Apart from this, statistical analysis was performed as described in Example 1 (see paragraph 1.1.7), with no evaluation of tumor growth after stop of treatment.

[4] = system: HER2-overexpressing human NSCLC cell line NCI-H2170; assay: NCI-H2170 subcutaneous xenograft, zongertinib with T-DXd; type: in vivo, NMRI-Foxn1^nu mice; conditions: day 21, alone or combined; for Regressions >30%: tumors regressed/total (partial response)
Method: The study is performed in human NSCLC cell line NCI-H2170 grown as subcutaneous xenografts in NMRI-Foxn1^nu mice. Day 1 was the first day, day 21 the last day of treatment and final day of analysis.
NCI-H2170 is a HER2-overexpressing NSCLC cell line that can be obtained from the American Type Culture Collection (ATCC #CRL-5928; original vial lot: 4419196). Cells are cultured in T175 tissue culture flasks at 37° C. and 5% CO2. The medium used is RPMI 1640 (ATCC #30-2001) supplemented with 10% fetal bovine serum (FBS) (Gibco #26140079). Cultures are split twice weekly with a ratio of 1:3-1:9.
To establish subcutaneous tumors, NCI-H2170 cells are harvested by centrifugation, washed and resuspended in PBS+5% FCS at 1×10^7 cells/ml. 100 μl cell suspension containing 1×10^6 cells are injected subcutaneously into the right flank of the mice (1 site per mouse).
Tumor volumes and side effects are monitored as described in Example 1 (see paragraph 1.1.6), except that control animals are sacrificed when the median tumor volume of the group reaches a size of approximately 1000 mm^3.
as §1

[5] = system: T-DXd-resistant NCI-N87 cells; assay: Proliferation assay (CellTiter Glo), T-DXd resistant NCI-N87 cells; type: cell-based, human; conditions: 5 days of incubation, in vitro
Method: as §2

[6] = zongertinib 20 mg/kg qdx14 p.o., trastuzumab 20 mg/kg q7dx2 i.p., alone or combined
[7] = zongertinib 20 mg/kg qdx21 p.o., T-DXd 3 mg/kg q21dx1 i.v.

**Q.** How did the “Regressions >30%” value ([1]; day 21, tumors regressed/total (partial response), zongertinib 10 mg/kg qdx21 p.o., capecitabine 400 mg/kg qdx21 p.o., trastuzumab 20 mg/kg q7dx3 i.p., alone or combined) turn out when `C=CC(=O)NC1CCN(c2ncc3ncnc(Nc4ccc(Oc5ccc6c(c5)ncn6C)c(C)c4)c3n2)CC1` [Zongertinib, N-{1-[8-({3-methyl-4-[(1-methyl-1H-1,3-benzodiazol-5-yl)oxy]phenyl}amino)-[1,3]diazino [5,4-d]pyrimidin-2-yl]piperidin-4-yl}prop-2-enamide] was run?
**A.** 0/8

**Q.** And the TGI ([1]; day 21, zongertinib 10 mg/kg qdx21 p.o., capecitabine 400 mg/kg qdx21 p.o., trastuzumab 20 mg/kg q7dx3 i.p., alone or combined)?
**A.** 53%

**Q.** And the “effect on tumor growth (median tumor volumes over time)” value ([1]; zongertinib 10 mg/kg qdx21, capecitabine 400 mg/kg qdx21, trastuzumab 20 mg/kg q7dx3, alone or triple combination)?
**A.** delayed tumor growth but did not shrink tumors

**Q.** What about the “Regressions >30%” value [2] of the same molecule?
**A.** 0/8

**Q.** And the “Regressions >30%” value ([2]; listed as zongertinib)?
**A.** no tumors

**Q.** And the TGI [2]?
**A.** 73%

**Q.** What about the “sensitivity (dose response, cell viability)” value (parental NCI-N87 cells) of the same molecule?
**A.** sensitive

**Q.** And the stable disease ([3]; number of tumors out of 8, zongertinib 20 mg/kg qdx14, trastuzumab 20 mg/kg q7dx2, monotherapies)?
**A.** no stable disease

**Q.** And the “Regressions >30%” value [3, 6]?
**A.** 0/8

**Q.** And the “Regressions >30%” value ([3]; zongertinib 20 mg/kg qdx14 p.o., trastuzumab 20 mg/kg q7dx2 i.p., alone or combined, listed as zongertinib)?
**A.** no partial response

**Q.** What about the TGI [3, 6] of the same molecule?
**A.** 80%

**Q.** And the stable disease ([4]; number of tumors out of 8, zongertinib 20 mg/kg qdx21, T-DXd 3 mg/kg q21dx1)?
**A.** 1

**Q.** What about the “Regressions >30%” value [4, 7] of the same molecule?
**A.** 0/8

**Q.** What about the “Regressions >30%” value ([4]; zongertinib 20 mg/kg qdx21 p.o., T-DXd 3 mg/kg q21dx1 i.v., listed as zongertinib) of the same molecule?
**A.** no partial responses

**Q.** And the TGI [4, 7]?
**A.** 89%

**Q.** What about the “difference in IC50 between parental and T-DXd-resistant NCI-N87 cells” value [5] of the same molecule?
**A.** less than 10 fold

**Q.** And the “sensitivity (dose response, cell viability)” value [5]?
**A.** sensitive
